Consider eleven molecules from article PMC12497685, “Anticoronavirus Isoquinoline Alkaloids: Unraveling the Secrets of Their Structure–Activity Relationship” (Influenza and Other Respiratory Viruses, 2025).

A word on the EC50: it is the concentration giving half of the maximal effect. Read a high EC50 as a need for much substance. For orientation: viability means a read-out of living cells in per cent, often relative to untreated cells.

Data set [1] deals with HCoV‐229E. Put plainly: microbe, parasite or virus in culture. Type of data set: cell-based. The note with it: for Protective effects HCoV-229E % / inhibition at 10 µM: at 10 μM, compared with vehicle control, Huh7 cells, n = 1; for inhibition at 10 µM: Human coronavirus 229E, Huh-7, read-out: Protective effects HCoV-229E %.
For data set [2], the system named is Huh7 cells. The note with it: at 10 μM, compared with vehicle control, n = 1.
Data set [3] concerns hACE‐2‐overexpressed HEK293T (ACE2‐293T cells).
A short description of data set [4]: in vitro. The note with it: human.

Several values for one entry are separate records, joined by “and”; a condition that tells them apart may be missing. Equal values may be shown once. Read-outs that look alike come from different tables or passages of the source.

Turning to (+)‐aromoline [Compound 16], in data set [1], the EC50 was determined as 4.33 ± 0.9 µM and the “Protective effects HCoV-229E %” value was found to be 85%. In addition, in data set [2], the “Cytotoxicity to the host Huh7 cells %” value was “— (Non-toxic (insignificant cytotoxic effects, below 20%))”. Besides, in data set [3], the “cytotoxicity towards hACE2‐293 T cells (in words)” value was “nontoxic”. Moreover, the “Cell viability (%)” value in data set [3] (10 µM) was 103.64 ± 3.23%.
On to `COc1cc2c3cc1Oc1c(O)c(OC)cc4c1[C@@H](Cc1ccc(O)c(c1)Oc1ccc(cc1)C[C@@H]3N(C)CC2)N(C)CC4` [Compound 19, (+)‐obamegine], for which, in data set [1], the inhibition at 10 µM worked out at 80%. Besides, the “Cytotoxicity to the host Huh7 cells %” value in data set [2] is “— (Non-toxic (insignificant cytotoxic effects, below 20%))”. Besides, the “cytotoxicity towards hACE2‐293 T cells (in words)” value in data set [3] was “nontoxic”. The viability at 10 µM in data set [4] stood at 97.5 ± 7.15%.
Regarding (±)‐Haemanthidine [Compound 1], in data set [1], the EC50 stood at 4.11 ± 0.41 µM and the “Protective effects HCoV-229E %” value was determined as 80%. Besides, the “Cytotoxicity to the host Huh7 cells %” value in data set [2] is 20% and ~ 20%. The “cytotoxicity towards hACE2‐293 T cells (in words)” value in data set [3] was “toxic”. In data set [3] (ACE2-293T, 10 μM, 24 h, WST-1), the “Cell viability (%)” value is reported as 51.97 ± 7.07%.
As for `COc1cc2c3cc1Oc1c(OC)c(OC)cc4c1[C@@H](Cc1ccc(O)c(c1)Oc1ccc(cc1)C[C@@H]3N(C)CC2)N(C)CC4` [Compound 17, (+)‐berbamine], in data set [1], the inhibition at 10 µM came out at 70%. The “Cytotoxicity to the host Huh7 cells %” value in data set [2] was 25% and ~ 20%. For the same molecule, the “cytotoxicity towards hACE2‐293 T cells (in words)” value in data set [3] is on record as “nontoxic”. For the same molecule, in data set [4], the viability at 10 µM came to 103 ± 2.42%.
For (−)‐corypalmine [Compound 25], the “Protective effects HCoV-229E %” value in data set [1] is reported as “— (Not active (insignificant protective effects below 20%))”. In addition, the “Cytotoxicity to the host Huh7 cells %” value in data set [2] is listed as “— (Non-toxic (insignificant cytotoxic effects, below 20%))”.
As for `O[C@@H]1Cc2cc3c(cc2[C@@H]2NCc4c(ccc5c4OCO5)[C@H]12)OCO3` [Compound 48, norchelidonine], in data set [1], the inhibition at 10 µM came to 50%. In data set [2], the “Cytotoxicity to the host Huh7 cells %” value turned out to be 50%.
Take `CN1CCC2=C[C@H](O)[C@H]3OC(=O)c4cc5c(cc4[C@H]3[C@@H]21)OCO5` [Compound 12, hippeastrine]: the “Protective effects HCoV-229E %” value in data set [1] is “— (Not active (insignificant protective effects below 20%))”. Moreover, in data set [2], the “Cytotoxicity to the host Huh7 cells %” value came out at 25%.
Turning to `COc1ccc(CC2c3cc4c(cc3CCN2C)OCO4)c(C=O)c1OC` (stereo not drawn) [Compound 30, (+)‐canadaline], the “Protective effects HCoV-229E %” value in data set [1] is recorded as “— (Not active (insignificant protective effects below 20%))”. Besides, the “Cytotoxicity to the host Huh7 cells %” value in data set [2] was “— (Non-toxic (insignificant cytotoxic effects, below 20%))”.
With (±)‐O‐methylfumarofine [Compound 44], in data set [1], the “Protective effects HCoV-229E %” value is “— (Not active (insignificant protective effects below 20%))”. Also, in data set [2], the “Cytotoxicity to the host Huh7 cells %” value is “— (Non-toxic (insignificant cytotoxic effects, below 20%))”.
As to `O[C@@H]1CC=C2CCN3Cc4cc5c(cc4[C@H]1[C@@H]23)OCO5` [Compound 15, (−)‐caranine], in data set [1], the “Protective effects HCoV-229E %” value is reported as “— (Not active (insignificant protective effects below 20%))”. In addition, the “Cytotoxicity to the host Huh7 cells %” value in data set [2] is “— (Non-toxic (insignificant cytotoxic effects, below 20%))”.
Consider `CN1CCc2cc3c(cc2[C@H]1[C@@H]1OC(=O)c2c1ccc1c2OCO1)OCO3` [Compound 46, (+)‐bicuculline], for which the “Protective effects HCoV-229E %” value in data set [1] is listed as “— (Not active (insignificant protective effects below 20%))”. In addition, in data set [2], the “Cytotoxicity to the host Huh7 cells %” value is listed as “— (Non-toxic (insignificant cytotoxic effects, below 20%))”.
